The text below walks through data of US20030129751A1, “Tissue-engineered organs” (priority 2001, published 2003).

For the test, the system named is neointestine. Nature of the test: GLP-2 treatment of rats bearing tissue-engineered small intestine: morphometry and SGLT1 expression. Type of test: in vivo, rat. As to the method: Neointestinal cysts were engineered by seeding biodegradable polymers with neonatal rat intestinal organoid units. The implantation was also performed with small intestine organoid units that had been labeled with GFP to distinguish and verify engineered tissue from host tissue (FIG. 36). Confirmation of GFP production was obtained by simultaneous in vitro culture of the organoid units. The cysts were matured and anastomosed to the native jejunum of syngenic adult recipients. Histology and surface area calculations were performed, as well as Northern blot and localization analysis of the Na+/glucose cotransporter (SGLT1). GLP-2 treatment augmented the absorptive surface area of engineered intestine […]. Animals were treated with [[…]]GLP-2 (twice daily, 1 μg/g body weight), a long-acting analogue of GLP-2, or vehicle alone (control) for 10 days. Rats were then sacrificed and tissues harvested for analysis. Histological parameters and surface area determinations were done using computer-based morphometry.

[1] abbreviates: [Gly2]GLP-2 twice daily 1 μg/g body weight, 10 days, mean±S.D.
Setting [2] is: [Gly2]GLP-2 twice daily 1 μg/g body weight, 10 days, mean±S.D., p < 0.05.

Regarding “[Gly2]GLP-2 (HGDGSFSDEMNTILDNLAARDFINWLIQTKITD; Glucagon-like peptide 2; UniProt P01275 146-178, looked up, variant A2G) [a long-acting analogue of GLP-2]”, where the note is “Northern blot, vs vehicle control”, the “SGLT1 mRNA expression in the neointestine” value is recorded as “two-fold increase”. Also, under setting [1], the “Crypt Width” value came to 63 ± 6 microns and the “Villus Width” value came to 114 ± 32 microns. Also, under setting [2], the “Surface Area (mucosal amplification ratio)” value was found to be 7.3 ± 1.4 and the “Villus Height” value turned out to be 456 ± 23 microns. Moreover, the SGLT1 expression topography result (localization analysis) is given as “unperturbed”. Besides, the “Expansion of absorptive surface area” value (vs vehicle control, 10 days) is 40%.
